From patent US20260248783A1 (ASCLETIS BIOSCIENCE CO., LTD., priority 2021, published 2026)
pEC50, pIC50: −log10 of the molar value. Where a name gives a salt, the structure may show the parent alone.

Experiments:
[1] = molecular target: T1, PD-1/PD-L1 (Homo sapiens, UniProt Q9NZQ7); experiment: PD-1/PD-L1 Homogeneous Time-Resolved Fluorescence (HTRF) Binding Assay; conditions: PD-1/PD-L1 HTRF activity; 3 nM PD1, 10 nM PD-L1, 25° C.
T1 construct: Recombinant human PD-L1 protein (19-238) with a Histag at the C-terminus; purchased AcroBiosystems PD1-H5229 (PD-L1); PD1-H5257 (PD-1)
Summary of the method: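 Human PD-L1 (19-238, His-tag) 10 nM and PD-1 (25-167, Fc-tag) 3 nM preincubated 40 min with inhibitor in PBS pH 7.4, 0.05% Tween-20, 0.1% BSA, 1% DMSO, 25 °C. Eu-anti-human IgG (1 nM) and anti-His-APC (20 nM) added, 60 min, 665/620 nm ratio; IC50 from percent control activity versus log concentration.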

[2] = molecular target: T2, extracellular domains of PD-L1 (Homo sapiens, UniProt Q9NZQ7); experiment: PD-L1 Dimerization; assay type: biochemical; conditions: PD-L1-Eu and PD-L1-A2, ratio 665 nm/615 nm
T2 construct: specifically dimerize the extracellular domains of PD-L1
Procedure: Example 108. PD-L1 Dimerization
Compounds were tested in biochemical protein-protein interaction assays to determine if they can specifically dimerize the extracellular domains of PD-L1. • (1) Diluted cpd 1:3 in succession in DMSO for each column for 10 samples • (2) Transferred 0.2 μL cpds solution in each row to 384 assay plate using Echo, each column containing 2 replicates • (3) Added 20 μL prepared mixture include PD-L1-Eu and PD-L1-A2 solution to assay plate, centrifuged at 1000 rpm for 1 min. • (4) Incubated at 25° C. for […]. • (5) Read fluorescence signal on Envision 2104 plate reader. • (6) Read the Ratio (665 nm/615 nm) signal on Envision. • (7) Analyzed the raw data using the equation (V. Data analysis)

[3] = system: Hep3B-OS8-hPDL1 and T cells; experiment: Hep3B-OS8-hPDL1 and T Cells Co-Culture Assay (IFN-γ by ELISA); assay type: cell-based; conditions: T-cell, Hep3B-OS8-hPDL1 and human CD3+ T cells, 72 hours, read-out: Tumor and T Cell EC50
Procedure: Example 110. Hep3B-OS8-hPDL1 and T Cells Co-Culture Assay
(§1) 1. Hep3B-OS8-hPDL1 cells were cultured in 1640 medium supplemented with 10% fetal bovine serum, 1% penicillin and streptomycin, in which 100 μg/mL G418 and Hygromycin B were also added.
2. Hep3B-OS8-hPDL1 cells were harvested and treated with 10 μg/mL mitomycin C at 37° C. for 1.5 h, and the cells were then washed thoroughly with PBS for four times.
3. Cells were re-suspended with RPMI 1640 medium containing 10% FBS and the cell density was adjusted to 5×10^5 cells/mL.
4. Cells were seeded into 96-well flat bottom plate (2.5×10^4 cells/50 μL/well).
b. CD3+ T cells isolation (30 mL blood)
5. The human blood sample from an individual donor was diluted by the same volume of sterile PBS, for instance add 25 mL sterile PBS into 25 mL fresh whole blood and mix sufficiently by gentle shake.
6. Transferred 15 mL Lymphoprep medium into a new 50 mL centrifuge tube.
7. Added the diluted blood sample as soft as possible onto the surface of the Ficoll medium to make sure there is a clear dividing line between the two liquids, and the volume ratio between Ficoll and diluted blood (30 mL) is 1:2.
8. Moved the tube gently to centrifuge, at 1000×g, 25 min, 20° C., with the acceleration (5) and Min deceleration (0) settings during the centrifugation.
9. Four interfaces in all could be observed after the centrifugation, which are layers of plasma, mononuclear cells, the Ficoll medium and RBCs from top to bottom, and move the tube as gently as possible so as keep the four interfaces separated. Absorbed and transferred the second layer of mononuclear cells into another new sterile centrifuge tube carefully, and absorbed certain volume of plasma instead of the Ficoll medium if inevitable.
10. Added sterile PBS of the three times the volume of PBMCs in the tube with PBMC.
11. Washed the cells twice with 5-10 mL PBS before cell counting with cytometer. Centrifuge at 350×g, 10 min, 20° C. With the acceleration (5) and deceleration (5) settings during the centrifugation.
12. Resuspended the cells with recommended medium and adjust the density of the PBMCs to the final concentration of 5×10^7 cells/mL.
13. Isolated CD3+ T cells with EasySep™ Human T Cell Isolation Kit (STEMCELL Technologies #17951), and the cells were seeded into 96-well flat bottom plate (5×10^4 cells/100 μL/well). c. Compounds solutions preparation
14. Prepared the Compounds dilutions in RPMI 1640 medium with 10% FBS according to the Layout. 15. Added compounds into each well in a volume of 50 μL. {3 compounds (GLC01-258, GLC01-269, GLC01-465) in 7 concentrations (0.03, 0.1, 0.3, 1, 3, 10 and 30 μM) and 6 compounds (GLC01-411, GLC01-292, GLC01-445, GLC01-475, GLC01-470 and GLC01-468) in the same concentration (1 μM)}.
16. Keytruda was included as positive control, the concentration was 5 μg/mL. 17. Incubated for 72 hours at 37° C., 5% CO2.
18. Collected supernatant by centrifugation and measure IFN-γ by ELISA.

[4] = system: PDL1; experiment: PDL1 Jurkat-NFAT Reporter Assay; assay type: cell-based; conditions: Homo sapiens; Hep3B-OS8-hPDL1 with Jurkat-NFAT-PD1 cells, 6 hours, luciferase
Procedure: Example 109. PDL1 Jurkat-NFAT Reporter Assay
Preparation of Hep3B-OS8-hPDL1
as §1
2. Cells were re-suspended with RPMI 1640 medium containing 10% FBS and the cell density was adjusted to 1.25×10^5 cells/mL.
3. Cells were seeded into 96-well flat bottom plate (1.25×10^4 cells/100 μL/well).
b. Compounds solutions preparation
4. Removed the medium from pre-plated Hep3B-OS8-PDL1 cells. Washed once with 200 μL Assay Medium.
5. Prepared the Compounds dilutions in RPMI 1640 medium with 10% FBS according to the Layout.
6. Added compounds into each well in a volume of 50 μL in 9 concentrations ([…])}. Keytruda will be included as positive control at the concentration of 5 μg/mL.
7. Incubated for 20-30 min at 37° C., 5% CO2.
c. Preparation of Jurkat-NFAT-PD1
8. Jurkat-NFAT-PD1 cells were cultured in 1640 medium supplemented with 10% fetal bovine serum, 1% penicillin and streptomycin, in which 1000 μg/mL Hygromycin B and […] puromycin were also added.
9. On the second day of assay, the cells were re-suspended with RPMI 1640 medium containing 10% FBS and the cell density was adjusted to 2.5×10^5 cells/mL.
10. […]

T2 sequence (Q9NZQ7 19-238 limits assumed): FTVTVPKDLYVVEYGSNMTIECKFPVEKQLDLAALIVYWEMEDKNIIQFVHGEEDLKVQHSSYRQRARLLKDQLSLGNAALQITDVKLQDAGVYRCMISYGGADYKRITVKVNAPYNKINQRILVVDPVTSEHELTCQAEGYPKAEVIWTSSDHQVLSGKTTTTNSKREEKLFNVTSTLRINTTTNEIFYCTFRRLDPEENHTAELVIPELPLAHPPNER
T1 sequence (Q9NZQ7 19-238): as the sequence (Q9NZQ7 19-238 limits assumed) above

Row | pIC50 [1] | pEC50 [2] | pEC50 [3] | pEC50 [4] | SMILES
1 | 7.00 to 8.00 |  | > 7.30 |  | Cc1cn2nc(-c3cccc(-c4cccc(-c5cc6c(=O)n(CCN7CC[C@H](O)[C@H]7C(=O)O)c(C)cn6n5)c4Cl)c3Cl)cc2c(=O)n1CCN1CC[C@H](O)[C@H]1C(=O)O [Compound 89, (2S,2'S,3S,3'S)-1,1′-(((2,2′-dichloro-[1,1′-biphenyl]-3,3′-diyl)bis(6-methyl-4-oxopyrazolo[1,5-a]pyrazine-2,5(4H)-diyl))bis(ethane-2,1-diyl))bis(3-hydroxypyrrolidine-2-carboxylic acid)]
2 | > 8.00 | 7.00 to 7.30 | > 7.30 |  | Cc1cn2nc(-c3cccc(-c4cccc(-c5cc6c(=O)n(CCN[C@@H](CO)C(=O)O)c(C)cn6n5)c4Cl)c3Cl)cc2c(=O)n1CCN[C@@H](CO)C(=O)O [Compound 57, (2S,2'S)-2,2′-((((2,2′-dichloro-[1,1′-biphenyl]-3,3′-diyl)bis(6-methyl-4-oxopyrazolo[1,5-a]pyrazine-2,5(4H)-diyl))bis(ethane-2,1-diyl))bis(azanediyl))bis(3-hydroxypropanoic acid)]
3 | 7.00 to 8.00 |  |  | ≤ 6.30 | Cn1c(CNC[C@@H]2CCC(=O)N2)cn2cc(-c3cccc(-c4cccc(-c5cc6c(=O)n(C)c(CNC[C@@H]7CCC(=O)N7)cn6c5)c4Cl)c3Cl)cc2c1=O [Compound 74, 7,7′-(2,2′-dichloro-[1,1′-biphenyl]-3,3′-diyl)bis(2-methyl-3-(((((S)-5-oxopyrrolidin-2-yl)methyl)amino)methyl)pyrrolo[1,2-a]pyrazin-1(2H)-one)]
4 | 7.00 to 8.00 | 7.00 to 7.30 | > 7.30 |  | Cc1cn2nc(-c3cccc(-c4cccc(-c5cc6c(=O)n(CCNC7(C(=O)O)CC(O)C7)c(C)cn6n5)c4Cl)c3Cl)cc2c(=O)n1CCNC1(C(=O)O)CC(O)C1 (centres unmarked) [Compound 85]
5 | 7.00 to 8.00 | > 7.30 | 7.00 to 7.30 |  | Cn1c(C[C@@H]2CCCN2)nn2cc(-c3cccc(-c4cccc(-c5cc6c(=O)n(C)c(C[C@@H]7CCCN7)nn6c5)c4Cl)c3Cl)cc2c1=O [Compound 76, 6,6′-(2,2′-dichloro-[1,1′-biphenyl]-3,3′-diyl)bis(3-methyl-2-(((S)-pyrrolidin-2-yl)methyl)pyrrolo[2,1-f][1,2,4]triazin-4(3H)-one)]
6 | > 8.00 | 7.00 to 7.30 | ≤ 7.00 |  | Cc1cn2cc(-c3cccc(-c4cccc(-c5cc6c(=O)n(CCN[C@@H](CO)C(=O)O)c(C)cn6c5)c4Cl)c3Cl)cc2c(=O)n1CCN[C@@H](CO)C(=O)O [Compound 63, (2S,2'S)-2,2′-((((2,2′-dichloro-[1,1′-biphenyl]-3,3′-diyl)bis(3-methyl-1-oxopyrrolo[1,2-a]pyrazine-7,2(1H)-diyl))bis(ethane-2,1-diyl))bis(azanediyl))bis(3-hydroxypropanoic acid)]
7 | 7.00 to 8.00 | ≤ 7.00 |  |  | Cc1cn2nc(-c3cccc(-c4cccc(-c5cc6c(=O)n(CCN[C@](C)(CO)C(=O)O)c(C)cn6n5)c4Cl)c3Cl)cc2c(=O)n1CCN[C@](C)(CO)C(=O)O [Compound 96, (2R,2′R)-2,2′-((((2,2′-dichloro-[1,1′-biphenyl]-3,3′-diyl)bis(6-methyl-4-oxopyrazolo[1,5-a]pyrazine-2,5(4H)-diyl))bis(ethane-2,1-diyl))bis(azanediyl))bis(3-hydroxy-2-methylpropanoic acid)]

More lines, now with the values behind:

Row | SMILES | pIC50 [1] | pEC50 [2] | pEC50 [3] | pEC50 [4]
8 | Cc1cn2nc(-c3cccc(-c4cccc(-c5cc6c(=O)n(CCN7CC[C@H](C(=O)O)C7)c(C)cn6n5)c4Cl)c3Cl)cc2c(=O)n1CCN1CC[C@H](C(=O)O)C1 [Compound 47, (3S,3'S)-1,1′-(((2,2′-dichloro-[1,1′-biphenyl]-3,3′-diyl)bis(6-methyl-4-oxopyrazolo[1,5-a]pyrazine-2,5(4H)-diyl))bis(ethane-2,1-diyl))bis(pyrrolidine-3-carboxylic acid)] | > 8.00 | 7.00 to 7.30 | ≤ 7.00 | 
9 | Cc1cn2nc(-c3cccc(-c4cccc(-c5cc6c(=O)n(C[C@@H]7CCCN7)c(C)cn6n5)c4Cl)c3Cl)cc2c(=O)n1C[C@@H]1CCCN1 [Compound 36, 2,2′-(2,2′-dichloro-[1,1′-biphenyl]-3,3′-diyl)bis(6-methyl-5-(((S)-pyrrolidin-2-yl)methyl)pyrazolo[1,5-a]pyrazin-4(5H)-one) dihydrochloride] | > 8.00 | > 7.30 | > 7.30 | 
10 | Cc1cn2nc(-c3cccc(-c4cccc(-c5cc6c(=O)n(CCNCCO)c(C)cn6n5)c4Cl)c3Cl)cc2c(=O)n1CCNCCO [Compound 52, 2,2′-(2,2′-dichloro-[1,1′-biphenyl]-3,3′-diyl)bis(5-(2-((2-hydroxyethyl)amino)ethyl)-6-methylpyrazolo[1,5-a]pyrazin-4(5H)-one)] | > 8.00 | > 7.30 | 7.00 to 7.30 | 
11 | Cc1cn2cc(-c3cccc(-c4cccc(-c5cc6c(=O)n(CCNCCO)c(C)cn6c5)c4Cl)c3Cl)cc2c(=O)n1CCNCCO [Compound 51, 7,7′-(2,2′-dichloro-[1,1′-biphenyl]-3,3′-diyl)bis(2-(2-((2-hydroxyethyl)amino)ethyl)-3-methylpyrrolo[1,2-a]pyrazin-1(2H)-one)] | > 8.00 | 7.00 to 7.30 | 7.00 to 7.30 | 
12 | Cc1cn2cc(-c3cccc(-c4cccc(-c5cc6c(=O)n(CCN7CC[C@H](C(=O)O)C7)c(C)cn6c5)c4Cl)c3Cl)cc2c(=O)n1CCN1CC[C@H](C(=O)O)C1 [Compound 53, (3S,3'S)-1,1′-(((2,2′-dichloro-[1,1′-biphenyl]-3,3′-diyl)bis(3-methyl-1-oxopyrrolo[1,2-a]pyrazine-7,2(1H)-diyl))bis(ethane-2,1-diyl))bis(pyrrolidine-3-carboxylic acid)] | > 8.00 |  | ≤ 7.00 | 
